# Like-named read-outs stand apart in the source and are kept apart here.
# Key:
# [1] = tested on: Fusobacterium necrophorum; test: agar-dilution MIC vs. anaerobic bacteria; type: cell-based; details: Fusobacterium necrophorum; strain 6054A; Table 6; read-out: MIC
# [2] = tested on: Peptococcus constellatus; test: agar-dilution MIC vs. Peptococcus and Peptostreptococcus species; type: cell-based; details: Pc. constellatus 1468; Table 9
# Description: (§1) The agar-dilution procedure described by the International Collaborative Study (ICS) group was used to determine MIC values.
# (§2) The MIC values were determined by the agar-dilution method, and are recorded in Table 9, which follows.
# [3] = tested on: Peptostreptococcus intermedius; test: as above; type: cell-based; details: Table 9
# Description: as §1, §2
# [4] = tested on: Peptostreptococcus anaerobius; test: as above; type: cell-based; details: Table 9
# Description: as §1, §2
# [5] = tested on: Peptococcus asaccharolyticus; test: as above; type: cell-based; details: Table 9
# Description: as §1, §2
# [6] = tested on: Peptococcus magnus; test: as above; type: cell-based; details: Table 9
# Description: as §1, §2
# [7] = tested on: Peptococcus prevoti; test: as above; type: cell-based; details: Table 9
# Description: as §1, §2
# [8] = tested on: Streptococcus faecalis; test: agar-dilution screening procedure, MIC; type: cell-based; details: Enterococcus faecalis, S. faecalis X66
# Description: as §1
# (§3) The results obtained from tests of antibiotic A-32256 in the agar-dilution screening procedure are recorded in Table 5, which follows.
# [9] = tested on: Erwinia amylovora; test: agar-dilution screening procedure, MIC; type: cell-based
# Description: as §1, §3
# [10] = tested on: Staphylococcus aureus; test: agar-dilution screening procedure, MIC; type: cell-based
# Description: as §1, §3
# [11] = tested on: Peptostreptococcus intermedius; test: agar-dilution MIC vs. anaerobic bacteria; type: cell-based; details: strain 1264, Table 6
# [12] = tested on: Clostridium perfringens; test: microbe, parasite or virus in culture; type: cell-based; details: Clostridium perfringens, strain 81; Table 6
# [13] = tested on: Bacteroides fragilis; test: agar-dilution MIC vs. Bacteroides species; type: cell-based; details: 24 hours, Table 8
# Description: as §1
# (§4) The MIC values were determined by the agar-dilution method, the endpoints being read 24 hours after incubation, and are recorded in Table 8, which follows.
# [14] = tested on: B. vulgatis; test: agar-dilution MIC vs. Bacteroides species; type: cell-based; details: B. vulgatis 1563; 24 hours; Table 8
# Description: as §1, §4
# [15] = tested on: B. corrodens; test: agar-dilution MIC vs. Bacteroides species; type: cell-based; details: B. corrodens 1874; 24 hours; Table 8
# Description: as §1, §4
# [16] = tested on: B. thetaiotaomicron; test: agar-dilution MIC vs. Bacteroides species; type: cell-based; details: 24 hours, Table 8
# Description: as §1, §4
# [17] = tested on: Propionibacterium acnes; test: agar-dilution MIC vs. anaerobic bacteria; type: cell-based; details: strain 79; Table 6
# [18] = tested on: Peptococcus asaccharolyticus; test: agar-dilution MIC vs. anaerobic bacteria; type: cell-based; details: strain 1302; Table 6
# [19] = tested on: mosquito; test: mosquito larvacide activity; type: in vivo; details: application rate of about 20 ppm
# Source text: Antibiotic A-32256 is also active as a mosquito larvacide at an application rate of about 20 ppm.
# [20] = tested on: Bacteroides melanogenicus; test: agar-dilution MIC vs. anaerobic bacteria; type: cell-based; details: Table 6
# [21] = tested on: Streptococcus pyogenes; test: disc-plate screening procedure, zone of inhibition; details: read-out: Zone Diameter
# [22] = tested on: Peptostreptococcus anaerobius; test: agar-dilution MIC vs. anaerobic bacteria; type: cell-based; details: strain 1428, Table 6
# [23] = improvement of ruminant feed efficiency; type: in vivo
# Description: Suitable rates of administration are in the range of from about 10 to about 100 g/ton (from about 11 to about 111 ppm) of feed, or from about 0.25 mg to about 2.9 mg/kg of body weight of the ruminant. The preferred level of administration of A-32256 is from about 0.5 to about 1 mg/kg of body weight of ruminant, or about 50 g/ton of feed.
# [24] = tested on: Streptococcus sp. (Group D); test: disc-plate screening procedure, zone of inhibition; details: read-out: Zone Diameter
# [25] = tested on: Trichomonas vaginalis; test: broth dilution assay, antitrichomonal activity; type: cell-based; details: in vitro
# [26] = potentiometric titration; type: physicochemical; details: 66% dimethylformamide in water, initial pH 4.1
# Description: Antibiotic A-32256 is a green, crystalline solid having a melting point of about 196°-198° C. The antibiotic has a molecular weight of 402, as determined by electron-impact mass spectrometry, and an approximate elemental analysis as follows: 68.71% carbon, 4.48% hydrogen, 6.93% nitrogen, and 19.21% oxygen. Based on elemental analysis and molecular weight, an empirical formula of C23 H18 N2 O5 is assigned to antibiotic A-32256. […] Antibiotic A-32256 has specific rotation of [α]D^25 +5° (c 0.96, chloroform).
# [27] = tested on: Bacteroides vulgatis; test: agar-dilution MIC vs. anaerobic bacteria; type: cell-based; details: strain 1211; Table 6
# [28] = tested on: Eubacterium aerofaciens; test: agar-dilution MIC vs. anaerobic bacteria; type: cell-based; details: strain 1235; Table 6
smiles,measurement,setting,value
"Cc1cccc(O)c1C(=O)OC(C)c1cccc2nc3c(C(=O)O)cccc3nc12 (stereo not shown) [Antibiotic A-32256, 6-[1-[(2-hydroxy-6-methylbenzoyl)oxy]-ethyl]-1-phenazinecarboxylic acid]",MIC,[1],1 µg/mL
same,MIC,[2],8 µg/mL
same,MIC,[3]; Ps. intermedius 1264,2 µg/mL
same,MIC,"[3]; Ps. intermedius 1524, read-out: MIC",≤ 0.125 µg/mL
same,MIC,[3]; Ps. intermedius 1624,8 µg/mL
same,MIC,"[4]; Peptostreptococcus anaerobius, Ps. anaerobius 1428, read-out: MIC",≤ 0.125 µg/mL
same,MIC,[4]; Ps. anaerobius 8,2 µg/mL
same,MIC,[4]; Ps. anaerobius 52,8 µg/mL
same,MIC,[4]; Ps. anaerobius 59,0.5 µg/mL
same,MIC,[4]; Ps. anaerobius 1418,0.25 µg/mL
same,MIC,[4]; Ps. anaerobius 1451,0.5 µg/mL
same,MIC,[4]; Ps. anaerobius 1477,8 µg/mL
same,MIC,[5]; Pc. asaccharolyticus 1302,2 µg/mL
same,MIC,[5]; Pc. asaccharolyticus 1344,2 µg/mL
same,MIC,[6]; Pc. magnus 1401,2 µg/mL
same,MIC,[6]; Pc. magnus 1421,0.5 µg/mL
same,MIC,[6]; Pc. magnus 1477,0.5 µg/mL
same,MIC,[7]; Pc. prevoti 1281,2 µg/mL
same,MIC,[7]; Pc. prevoti 1293,16 µg/mL
same,MIC,[7]; Pc. prevoti 1407,2 µg/mL
same,MIC,[8],4 µg/mL
same,MIC,[9],4 µg/mL
same,MIC,"[10]; S. aureus 3055, benzylpenicillin-susceptible",1 µg/mL
same,MIC,"[10]; S. aureus 3074, benzylpenicillin-resistant",< 0.5 µg/mL
same,MIC,[11],≤ 0.5 µg/mL
same,MIC,[12],2 µg/mL
same,MIC,[13]; B. fragilis 2,1.0 µg/mL
same,MIC,[13]; B. fragilis 9,1.0 µg/mL
same,MIC,[13]; B. fragilis 62,1.0 µg/mL
same,MIC,[13]; B. fragilis 103,0.5 µg/mL
same,MIC,[13]; B. fragilis 104,1.0 µg/mL
same,MIC,[13]; B. fragilis 106,0.5 µg/mL
same,MIC,[13]; B. fragilis 107,2 µg/mL
same,MIC,[13]; B. fragilis 108,1.0 µg/mL
same,MIC,[13]; B. fragilis 110,0.5 µg/mL
same,MIC,[13]; B. fragilis 111,1.0 µg/mL
same,MIC,[13]; B. fragilis 112,0.5 µg/mL
same,MIC,[13]; B. fragilis 113,1.0 µg/mL
same,MIC,[13]; B. fragilis 1470,0.5 µg/mL
same,MIC,[13]; B. fragilis 1877,1.0 µg/mL
same,MIC,[13]; V. fragilis 1451 (so in the source),2 µg/mL
same,MIC,[14],1.0 µg/mL
same,MIC,[15],0.25 µg/mL
same,MIC,[16]; B. thetaiotaomicron 1438,1.0 µg/mL
same,MIC,[16]; B. thetaiotaomicron 1900A,1.0 µg/mL
same,MIC,[17],2 µg/mL
same,MIC,[18],16 µg/mL
same,mosquito larvacide activity,[19],active
same,MIC,"[20]; Bacteroides, strain 1856/28, read-out: MIC",16 µg/mL
same,MIC,[20]; strain 2736,16 µg/mL
same,zone of inhibition at 30 µg/disc,[21],11 mm
same,zone of inhibition at 300 µg/disc,[21],13 mm
same,MIC,[22],≤ 0.5 µg/mL
same,improvement of ruminant feed efficiency,[23],has shown utility for the improvement of ruminant feed efficiency
same,zone of inhibition at 30 µg/disc,[24],18.2 mm
same,zone of inhibition at 300 µg/disc,[24],21 mm
same,antitrichomonal activity,[25],has shown antitrichomonal activity in vitro
same,pKa,"[26]; pH 4.1, first titratable group",~5.02
same,pKa,"[26]; pH 4.1, second titratable group",~7.2
same,MIC,[27],8 µg/mL
same,MIC,[28],2 µg/mL

# — patent US4400510A, “A-32256 Phenazine antibiotic” (Eli Lilly and Company, priority 1981, dated 1983)
